Data set [1] concerns collagen-induced aggregation in rabbit platelet. As to the kind of experiment: Inhibition effect on collagen-induced aggregation in rabbit platelet. It is filed as cell-based. As to conditions: for inhibition at 100 µM / inhibition at 10 µM / inhibition at 1 µM: Oryctolagus cuniculus, Platelet, read-out: Inhibition effect on collagen-induced aggregation. On the procedure: (§1) The platelet aggregation inhibitory effect is measured by using AG-II aggregometer (manufactured by Bryston Manufacturing Co.). The blood sample used for the test is a 1/9 (by volume) mixture of sodium citrate and whole blood collected from rabbit. Said sample is subjected to 10-minute centrifugal separation at 1,000 r.p.m. to obtain a platelet rich plasma (PRP). The thus obtained PRP is separated, and the remaining blood sample is further subjected to 15-minute centrifugal separation at 3,000 r.p.m. to obtain a platelet poor plasma (PPP).
(§2) The number of platelets in the PRP is counted by the Brecher-Clonkite Method, and the PRP is diluted with the PPP to prepare a PRP sample with platelet concentration of 300,000/mm^3 for the adenosine diphosphate (ADP)-induced aggregation test. There is also prepared a PRP sample with platelet concentration of 450,000/mm^3 for the collagen-induced aggregation test.
(§3) 0.6 Milliliter of said PRP sample is added into 0.01 ml of a solution of a test compound of a predetermined concentration and the mixture is placed in a 37° C. thermostat for one minute. Then 0.07 ml of an ADP or collagen solution is added to the mixture. Transmittance of this mixture is determined and the change of transmittance is recorded by using the aggregometer at stirrer speed of 1,100 r.p.m. […] The ADP solution is adjusted to a concentration of 7.5×10^-5 M, and the collagen solution is prepared by triturating 100 mg of collagen with 5 ml of said buffer and the supernatant is used as collagen inducer. Acetylsalicylic acid is used as control for the ADP-induced aggregation test and the collagen-induced aggregation test, respectively. The platelet aggregation inhibitory effect is measured in terms of percent inhibition with respect to the aggregation rate of the controls. The aggregation rate is calculated from the following formula:
(§4) Aggregation rate=[(c-a)/(b-a)]×100
(§5) b: transmittance of PRP containing a test compound and an aggregation inducer

The next data set can be described thus: Acute Toxicity Test. The following applies: mouse, in vivo; male mice, oral administration. On the procedure:
The test compounds were administered orally to the mice and LD50 (mg/kg) of the compounds was determined.

Data set [2] concerns ADP-induced aggregation in rabbit platelet. As to the kind of experiment: Inhibition effect on ADP-induced aggregation in rabbit platelet. The following applies: for inhibition at 100 µM / inhibition at 10 µM / inhibition at 1 µM: Oryctolagus cuniculus, Platelet; for inhibition at 10 µM / inhibition at 1 µM: read-out: Inhibition effect on ADP-induced aggregation. Type of data set: cell-based. On the procedure: as §1, §2, §3, §4, §5

Setting [3] is: concentration of the test compound solution 10^-4 mole.
[4] abbreviates: concentration of the test compound solution 10^-5 mole.
Setting [5] is: concentration of the test compound solution 10^-6 mole.

Like-named read-outs stand apart in the source and are kept apart here.

Usually inhibition stands for the drop in the measured response relative to a control, in per cent. In general, LD50 refers to the dose expected to kill half of the subjects tested.

As for `CN(Cc1cccs1)C(=O)CCCOc1ccc2[nH]c(=O)ccc2c1` [No. 5, 6-{3-[N-Methyl-N-(2-thienylmethyl)aminocarbonyl]propoxy}carbostyril], the values for the inhibition at 100 µM in data set [1] (setting [3]) and in data set [2] (setting [3]) were 85.7% and 100%, respectively. The figures for the inhibition at 10 µM in data set [1] (setting [4]) and in data set [2] (setting [4]) were 30.7% and 54.7%, respectively. In addition, in the data set “Acute Toxicity Test”, the LD50 is > 1000 mg/kg. In addition, in data set [2] (setting [5]), the inhibition at 1 µM is 7.1%.

For `CCC(O)CN(CC1CCCCC1)C(=O)CCCCOc1ccc2c(c1)CCC(=O)N2` (stereo not shown) [No. 7, 6-{4-[N-(2-Hydroxybutyl)-N-cyclohexylmethylaminocarbonyl]butoxy}-3,4-dihydrocarbostyril], the inhibition at 10 µM in data set [1] (setting [4]) was found to be 100%; in data set [2] (setting [4]), 64.3%. Besides, the results for the inhibition at 1 µM in data set [1] (setting [5]) and in data set [2] (setting [5]) were 13.3% and 18.6%, respectively. In addition, the LD50 in the data set “Acute Toxicity Test” was > 1000 mg/kg. The same molecule showed an inhibition at 100 µM in data set [2] (setting [3]) of 100%.

On to `O=C1CCc2cc(OCCCCC(=O)N(CCCCO)CC3CCCCC3)ccc2N1` [No. 8, 6-{4-[N-(4-Hydroxybutyl)-N-cyclohexylmethylaminocarbonyl]butoxy}-3,4-dihydrocarbostyril], for which the inhibition at 10 µM in data set [1] (setting [4]) is 100%; in data set [2] (setting [4]), 72.1%. The figures for the inhibition at 1 µM in data set [1] (setting [5]) and in data set [2] (setting [5]) were 10.2% and 12.2%, respectively. In “Acute Toxicity Test”, the LD50 was > 1000 mg/kg. The same molecule displayed an inhibition at 100 µM in data set [2] (setting [3]) of 100%.

`O=C1CCc2cc(OCCCC(=O)N(C3CCCCC3)C3CCCCC3Cl)ccc2N1` (stereo not shown) [No. 30, 6-{3-[N--Cyclohexyl-N--(2-chlorocyclohexyl)-aminocarbonyl]propoxy}-3,4-dihydrocarbostyril, reference compound]: the entries for the “Inhibition effect on collagen-induced aggregation” value in data set [1] (setting [3]), in data set [1] (setting [4]) and in data set [1] (setting [5]) were 91.5%, 89.9% and 50.3%, respectively. For the same molecule, the “Inhibition effect on ADP-induced aggregation” value stood at 89.8% in data set [2] (setting [3]), 82.9% in data set [2] (setting [4]) and 38.4% in data set [2] (setting [5]).

Consider `O=C1CCc2cc(OCCCC(=O)Nc3c(Cl)cccc3Cl)ccc2N1` [No. 44, 6-[3-(o,o-Dichloroanilinocarbonyl)propoxy]-3,4-dihydrocarbostyril, reference compound], for which the inhibition at 100 µM in data set [1] (setting [3]) came out at 95.1%; in data set [2] (setting [3]) it was 36.8%. Also, the inhibition at 10 µM in data set [1] (setting [4]) turned out to be 27.6%; in data set [2] (setting [4]) it was 5.3%.

Consider `CC(C)NC(=O)CCOc1ccc2c(c1)CCC(=O)N2` [No. 64, 6-(N--Isopropylaminocarbonylethoxy)-3,4-dihydrocarbostyril, reference compound], for which the “Inhibition effect on collagen-induced aggregation” value in data set [1] (setting [3]) stood at 17%; in data set [1] (setting [5]), 0%; in data set [1] (concentration of the test compound solution 10^-7 mole), 0%. Besides, the “Inhibition effect on ADP-induced aggregation” value in data set [2] (setting [3]) is 18%; in data set [2] (setting [4]), 13%; in data set [2] (setting [5]) it was 7%.

As for `O=C1CCc2cc(OCC(=O)N3CCOCC3)ccc2N1` [No. 65, 6-(Morpholinocarbonylmethoxy)-3,4-dihydrocarbostyril, reference compound], the inhibition at 100 µM amounted to 5% in data set [1] (setting [3]) and 13% in data set [2] (setting [3]). In addition, the inhibition at 10 µM in data set [1] (setting [4]) amounted to 0%; in data set [2] (setting [4]), 6%. Also, the inhibition at 1 µM in data set [1] (setting [5]) and in data set [2] (setting [5]) was 0% each time.

For the molecule `CC(=O)Oc1ccccc1C(=O)O` [No. 69, Aspirin, reference compound], in data set [1], the inhibition at 1 µM was 7%, the inhibition at 10 µM was 9% and the inhibition at 100 µM is 65%.

The values are drawn from patent US4435404A, “Carbostyril derivatives” (priority 1980, dated 1984).
